{"source": "patent US20020137901A1", "about": "“Synthesis, and photodynamic therapy-mediated anti-cancer, and other uses of chlorin e6-transferrin” (priority 2001, published 2002)", "key": {"[1]": {"system": "MTLn3 cells", "assay": "Cell killing assay, protocol B (serum-containing, one-day exposure)", "type": "cell-based, rat", "experimental": "(§1) FIG. 6. […] This was a one-day exposure, serum-containing assay performed using protocol B described in the cell killing section. Cells were plated in 24 well plates and grown to confluency. On day one, media was changed and increasing levels of Ce6-Tf were added to test wells to a final concentration from 7.5 to 30 ug/ml. Native Tf was added to control wells at 30 ug/ml. On day 2, media was changed to that without added Ce6-Tf or Tf. On days 2, 3, and 4, cells were exposed to light from an X-ray film box for 15 min. Media was changed each day. On day five, all cells were fixed, stained, and quantitated using the crystal violet stain assay. Stained cell numbers were evaluated using a Bio-Rad Multi-imager. Images of the stained plates are shown in A and B. The results of image analysis are shown in C and D, where ODU/mm2 correlates with cell number.\n(§2) FIG. 8. A: Effect of Ce6 alone on the viability of Rat MTLn3 cells. Cells were tested as per method B outlined in the cell killing procedure description. Confluent cells in ∝MEM containing 5% FBS were exposed to the indicated concentrations of Ce6, Ce6-Tf, or Tf alone. One day later, media was changed to that without added Ce6-Tf or Tf, and all cells were exposed to light for 15 min. This was repeated on days two and three. Cells were then fixed and stained with Coomassie blue. An image of the stained wells is shown. […] B: Effect of excess Tf on the killing effect of Ce6-Tf Cells were set up similarly as above, except that treatments consisted of Ce6-Tf, or Ce6-Tf in conjunction with 500 or 1,000 μg/ml native Tf. Light exposure, media changes, and cell staining were carried out as in A. An image of the stained wells is shown.\n(§3) B: Serum-containing, one day exposure assays. For these, serum was maintained, to emulate in vivo conditions where excess endogenous normal transferrin would be present. In addition, the Ce6-Tf exposure was limited to I day to emulate a one time Ce6-Tf injection. Target cells were grown to confluence in 24 well plates. On the day of the assay, media in all wells was replaced with 1 ml of fresh serum-containing media and increasing levels of Ce6-Tf added to test wells. Native human holo-Tf was added, at the highest Ce6-Tf dose, to control wells. One day after Tf addition, media in all plates was changed to normal culture media (without Ce6Tf).\nWith both assay methods, two plates for each line to be tested were plated and treated identically. One day after Ce6-Tf addition, test plates were exposed to the light from an X-ray film box for 15 min.: the box was placed horizontally and the culture plates placed directly on the cover glass. The parallel plate from a given line was kept in the dark. The light treatment was repeated for 3 days. Media was changed (with [A] or without [B] added Ce6-Tf ) each day, to maintain cell viability. On the fourth day, the cells were quantitated using a crystal violet stain assay: wells were drained and washed 4 times with 2 ml PBS; cells were fixed with 1 ml 5% v/v glutaraldehyde (in PBS) at 25° C. for 20 min.; wells were washed 4 times with 2 ml distilled water and stained with 1 ml of a 1:1 (v:v) mixture of 0.2% (w/v) crystal violet and 100 mM CAPS (pH 9.0). Wells were drained and washed 4 times with 2 ml distilled water. After drying, cell density was determined using a Bio-Rad Multiimager, where ODU/mm2 correlates with cell number.\nEffect of Ce6 alone: To determine if Ce6 alone, if added in appropriate concentrations, would induce cell death. […]"}, "[2]": {"system": "Human MCF7 breast cancer cells", "assay": "Cell killing assay, protocol B (serum-containing, one-day exposure)", "type": "cell-based", "details": "MCF7, 7.5 to 30 ug/ml", "experimental": "FIG. 7. […] Cells were plated in 24 well plates and grown to confluency. On day one, media was changed and increasing levels of Ce6-Tf were added to test wells to a final concentration from 7.5 to 30 ug/ml. Native Tf was added to control wells at 30 ug/ml. On day 2, media in all wells was changed to that without added Ce6-Tf or Tf On days 2, 3, and 4, cells were exposed to light from an X-ray film box for 15 min. Media was changed each day. On day five, all cells were fixed, stained, and quantitated using the crystal violet stain assay. Stained cell numbers were evaluated using a Bio-Rad Multi-imager. Images of the stained plates are shown in A. The results of image analysis are shown in B, where ODU/mm2 correlates with cell number. […]\n(§4) With both assay methods, two plates for each line to be tested were plated and treated identically. […] On the fourth day, the cells were quantitated using a crystal violet stain assay: wells were drained and washed 4 times with 2 ml PBS; cells were fixed with 1 ml 5% v/v glutaraldehyde (in PBS) at 25° C. for 20 min.; wells were washed 4 times with 2 ml distilled water and stained with 1 ml of a 1:1 (v:v) mixture of 0.2% (w/v) crystal violet and 100 mM CAPS (pH 9.0). […] After drying, cell density was determined using a Bio-Rad Multiimager, where ODU/mm2 correlates with cell number."}, "[3]": {"system": "NRK cells", "assay": "Cell killing assay, protocol B (serum-containing, one-day exposure)", "type": "cell-based, rat", "experimental": "as §1, §3, §4"}, "[4]": {"system": "Rat MTLn3 mammary adenocarcinoma cells", "assay": "Cell killing assay, protocol A (serum-free, continuous exposure)", "type": "cell-based", "details": "1.25 to 5.0 μg/ml", "experimental": "FIG. 5. […] This was a continuous exposure, serum-free assay performed using protocol A described in the cell killing section. Cells were plated in 24 well plates and grown to confluency in ∝MEM containing 5% v/v FBS. On day one, media was changed to ∝MEM only and increasing levels of Ce6-Tf were added to test wells to a final concentration from 1.25 to 5.0 μg/ml. Native Tf was added to control wells at 5.0 μg/ml. On days 2, 3, and 4, cells were exposed to light from an X-ray film box for 15 min. Media and all Tf was changed each day. On day five, all cells were quantitated using the crystal violet stain assay. Images of the stained plates are shown in A. Stained cell numbers were evaluated using a Bio-Rad Multi-imager. The results of image analysis are shown in B, where ODU/mm2 correlates with cell number. […]\nas §4"}, "[5]": {"system": "MTLn3 cells", "assay": "Transferrin competition of cell killing", "type": "cell-based, rat", "details": "MTLn3, 30 ug/ml Ce6Tf plus 500 or 1,000 μg/ml native Tf, light", "experimental": "as §2\nTransferrin competition of cell killing: These were performed to ensure that Ce6-Tf's cell killing effect was due to the function of the transferrin ligand: that the light-induced killing effect could be neutralized with excess native Tf Method B. from above was used. Confluent cultures of MTLn3 cells in 24 well plates were treated with 30 ug/ml of Ce6Tf. […] Light-induced killing assays were continued and cells quantitated as stated above in method B."}, "[6]": {"target": "T1, transferrin receptor (Rattus norvegicus, UniProt Q99376)", "T1 construct": "endogenous in cells; host or cells: Rat MTLn3 mammary adenocarcinoma cells (intact monolayers at 4 °C)", "T1 sequence (Q99376 whole entry)": "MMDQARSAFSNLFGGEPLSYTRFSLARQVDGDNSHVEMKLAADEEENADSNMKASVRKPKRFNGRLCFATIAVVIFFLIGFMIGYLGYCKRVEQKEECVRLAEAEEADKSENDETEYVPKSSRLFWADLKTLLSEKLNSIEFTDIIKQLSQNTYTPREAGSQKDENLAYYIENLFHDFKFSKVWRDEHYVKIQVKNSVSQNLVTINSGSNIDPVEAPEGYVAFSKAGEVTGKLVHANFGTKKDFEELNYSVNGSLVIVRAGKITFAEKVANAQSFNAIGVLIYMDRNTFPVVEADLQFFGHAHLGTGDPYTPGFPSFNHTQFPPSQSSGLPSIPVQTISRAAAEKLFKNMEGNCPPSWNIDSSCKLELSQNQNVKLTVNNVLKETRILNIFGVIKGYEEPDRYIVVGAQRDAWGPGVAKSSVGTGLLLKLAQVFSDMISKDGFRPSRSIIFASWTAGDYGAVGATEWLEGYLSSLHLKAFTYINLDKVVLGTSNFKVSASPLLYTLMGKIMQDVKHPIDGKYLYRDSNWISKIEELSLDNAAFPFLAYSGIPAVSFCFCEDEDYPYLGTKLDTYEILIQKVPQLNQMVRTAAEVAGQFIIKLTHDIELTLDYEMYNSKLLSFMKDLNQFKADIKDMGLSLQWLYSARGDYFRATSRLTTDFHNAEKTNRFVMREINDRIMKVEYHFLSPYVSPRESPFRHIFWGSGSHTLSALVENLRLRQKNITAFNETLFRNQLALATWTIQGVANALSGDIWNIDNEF", "assay": "Competition of FITC-Tf binding to cell surfaces (Western blot detection)", "details": "competitor 1 mg/ml, FITC-Tf 100 μg/ml, 4° C., 2 h", "experimental": "FIG. 4. Competition of FITC-Tf binding to cell surfaces by Ce6-Tf. Transferrin solvent, human Ce6-Tf, or native human Tf were added to Rat MTLn3 mammary adenocarcinoma cell monolayers equilibrated to 4° C. The final concentration of both transferrins was 1 mg/ml. FITC- human Tf was then added to all wells at 100 μg/ml. After a 2 h incubation, cells were washed, lysed, electrophoresed, blotted, and examined for FITC content by incubation with anti-FITC and an HRP-conjugated second antibody, followed by ECL. A strong band at 70,000 Kd was seen from cell lysates which received FITC-Tf only (lanes 4 and 5), indicating FITC-Tf binding to the cells. […] Lanes 1-3 were loaded with known amounts of pure FITC-Tf, for standardization. An image of the ECL X-ray film is shown.\nCompetition binding: This measures the ability of a material to inhibit the binding of FITC-transferrin to cell surfaces. FITC-Tf bound to the cells is detected by Western blotting of cell lysates and specific antibody-based detection of FITC in those. Rat MTLn3 mammary adenocarcinoma cells were grown to confluence in 12 well plates using media consisting of ocMM containing 5% v/v fetal bovine serun (FBS). […] Lysate protein was determined using the BCA assay (Pierce Chemical). […] The blot was blocked and FITC-TF was detected by treatment with rabbit anti-FITC then with anti-rabbit IG-HRP followed by ECL using an HRP substrate."}, "[7]": {"system": "Rat MTLn3 mammary adenocarcinoma cells", "assay": "Low serum growth assay", "type": "cell-based", "details": "αMEM 0.3% FBS, increasing levels of protein, four days", "experimental": "FIG. 2. Effect of chorin e6 on the growth of Rat MTLn3 mammary adenocarcinoma cells. Cells were plated at 2,000 cells/well in 96 well plates in ∝MEM containing 5% FBS. One day after plating, media was changed to ∝MEM containing 0.3% FBS. Increasing levels of human holo-Tf (Native Tf) or human Ce6-Tf (both in PBS) were added to respective wells, in the amount indicated. Four days later, cells were quantitated using a crystal violet stain assay, where A590 correlates with cell number. A: an image of the crystal violet stained plate used in the assay is shown. B: A plot of the absorbances from A. Cell number and is seen to rise as the cells are exposed to increasing levels of native human Tf.\nGrowth assays: Rat MTLn3 mammary adenocarcinoma cells were plated at 2,000 cells/well in 96 well plates in ∝MEM containing 5% FBS. One day after plating, media was changed to ∝MEM containing 0.3% FBS. Increasing levels of human holo-Tf or human Ce6-Tf (both in PBS) were added to respective wells. Four days later, cells were quantitated using a crystal violet stain assay."}}, "data": [{"substance": "chlorin e6 [Ce6, reference compound]", "values": [{"measurement": "Cell killing effect of Ce6 alone with light", "setting": "[1]; MTLn3, method B, free Ce6 4.3 uM (2.5 μg/ml), light 15 min on three days", "value": "no cell killing effect"}]}, {"substance": "chlorin e6-transferrin [Ce6-Tf]", "values": [{"measurement": "Cell numbers, plates kept in the dark", "setting": "[2]; no light", "value": "no loss of cell numbers"}, {"measurement": "Cell killing with light exposure (cell number, ODU/mm2)", "setting": "[2]; one-day exposure, light 15 min on days 2, 3, 4", "value": "light-dependent killing"}, {"measurement": "Change in cell numbers at the 15 ug/ml dose with light", "setting": "[3]; 15 ug/ml, light", "value": "did not"}, {"measurement": "Cell numbers, plates maintained in the dark", "setting": "[3]; 7.5 to 30 ug/ml, no light", "value": "no loss of cell numbers"}, {"measurement": "Cell killing with light exposure (cell number, ODU/mm2)", "setting": "[3]; 7.5 to 30 ug/ml, one-day exposure, light 15 min on days 2, 3, 4", "value": "light-dependent killing"}, {"measurement": "Cell killing with light exposure (cell number, ODU/mm2)", "setting": "[4]; light 15 min on days 2, 3, 4", "value": "light-dependent killing"}, {"measurement": "Cell numbers, plates kept in the dark", "setting": "[4]; no light", "value": "no loss of cell numbers"}, {"measurement": "Killing effect of Ce6-Tf in presence of excess native Tf", "setting": "[5]", "value": "diminished the killing effect"}, {"measurement": "Competition of FITC-Tf binding to cell surfaces", "setting": "[6]", "value": "competed out the FITC-Tf"}, {"measurement": "Change in cell numbers at the 15 ug/ml dose with light", "setting": "[1]; MTLn3, 15 ug/ml, light", "value": "showed a decrease in cell numbers"}, {"measurement": "Cell numbers, plates maintained in the dark", "setting": "[1]; MTLn3, 7.5 to 30 ug/ml, no light", "value": "no loss of cell numbers"}, {"measurement": "Cell killing with light exposure (cell number, ODU/mm2)", "setting": "[1]; MTLn3, 7.5 to 30 ug/ml, one-day exposure, light 15 min on days 2, 3, 4", "value": "light-dependent killing"}, {"measurement": "Light-induced cell death", "setting": "[1]; initially present at 0.43 uM (30 ug/ml)", "value": "very active"}, {"measurement": "Effect on cell growth (cell number, crystal violet A590)", "setting": "[7]", "value": "similar, albeit slightly lower rise"}]}, {"substance": "Native Tf: Un-conjugated iron-saturated human transferrin (Sigma Chemical), used as control", "values": [{"measurement": "Competition of FITC-Tf binding to cell surfaces", "setting": "[6]", "value": "competed out the FITC-Tf"}, {"measurement": "Effect on cell growth (cell number, crystal violet A590)", "setting": "[7]", "value": "seen to rise"}]}]}
